Assay results reported in patent publication US12253513B2, “Methods and compositions for the selective lysis of blood cells and separation of microbial cells” (QVELLA CORPORATION, priority 2018, dated 2025).

Legend:
[1] = tested on: Pseudomonas aeruginosa (PA), Proteus mirabilis (PM), and Staphylococcus aureus (SA); experiment: Microbial cell intactness: ΔCT by real-time RT-PCR, spiked phosphate buffer samples; format: cell-based; conditions: Triton X-100 0-0.75% w/v with SPS 15 mg/mL, no high pH; all cell types
Procedure: The effect of Triton X-100, one of the components of the type 2 blood lysis reagent, on microbial cell intactness, was experimentally investigated in the absence of a high pH environment (e.g. in the absence of a carbonate-bicarbonate buffer). Experiments were performed by contacting spiked phosphate buffer samples containing Pseudomonas aeruginosa (PA), Proteus mirabilis (PM), and Staphylococcus aureus (SA), prepared according to Example 3 below, with solutions containing Triton X-100 and SPS, such that the final concentrations of Triton X-100 in the various samples were 0, 0.188, 0.375, 0.55 and 0.75% w/v, and the SPS concentration was 15 mg/mL. Sample preparation and real time RT-PCR was performed according to the methods provided in Example 5 below. Spiked phosphate buffer samples, prepared according to the method of Example 3 below, were also prepared for spiked control and subjected to real time RT-PCR according to the method of Example 4 below. The ΔCT value, determined based on the difference between the spiked phosphate buffer sample CT value and the spiked control CT value, was employed as a proxy for microbial cell intactness after exposure to Triton X-100.
Bacterial cell suspension stock of 50 μL, having about 10^3 CFU of respective bacterial cells was added to 5 mL of 1 mM Phosphate Buffer (PB) and mixed by gentle vortexing. […]

[2] = tested on: Pseudomonas aeruginosa (PA), Proteus mirabilis (PM), and Staphylococcus aureus (SA); experiment: Microbial cell intactness: ΔCT by real-time RT-PCR, spiked whole blood samples; format: cell-based; conditions: 0.94% w/v detergent in type 3 reagent/blood mixture; all three species

Molecule	ΔCT [1]	ΔCT, Tween 20 compared with Triton X-100 as non-ionic detergent [2]
polyethylene glycol p-(1,1,3,3-tetramethylbutyl)-phenyl ether [Triton X-100]	≤ 2	–
CCCCCCCCCCCC(=O)OCCOCCOCCOCCOCCOCCOCCOCCOCCOCCOCCOCCOCCOCCOCCOCCOCCOCCOCCOCCOCC(OCCOCCOCCOCCOCCOCCOCCOCCOCCOCCOCCOCCOCCOCCOCCOCCOCCOCCOCCOCCO)C1OCC(OCCOCCOCCOCCOCCOCCOCCOCCOCCOCCOCCOCCOCCOCCOCCOCCOCCOCCOCCOCCO)C1OCCOCCOCCOCCOCCOCCOCCOCCOCCOCCOCCOCCOCCOCCOCCOCCOCCOCCOCCOCCO (centres unmarked) [Tween 20, Polysorbate 20]	–	very similar
